US20160158200A1, “Combinations of Hepatitis C Virus Inhibitors” (priority 2013, published 2016)

Tested on: HCV genotype-1a variant with glutamine 30 changed to glutamate in the NS5A protein
Type: cell-based
Settings: test compound titrated with BMS-790052 fixed at 200 nM; genotype 1a Q30E replicon
How it was run: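 Synergy was assessed by combining several fixed amounts of an NS5A-targeting compound with a titration of the second compound of interest.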

Compound | Fold-Synergistic 1a (Q30E) [fold]
Cc1ccc(C)c(C(=O)N[C@H](c2ncc(-c3ccc(-c4ccc(-c5cnc([C@@H](NC(=O)c6cc(C)ccc6C)C(C)C)[nH]5)cc4)cc3)[nH]2)C(C)C)c1 [Compound S-71] | >100
CC1(C(=O)N[C@H](c2nc(-c3ccc(-c4ccc(-c5c[nH]c([C@@H](NC(=O)C6(C)CCOCC6)C(C)(C)C)n5)cc4)cc3)c[nH]2)C(C)(C)C)CCOCC1 [Compound W-130] | >100
O=C(c1cccc2cnccc12)N1CCC[C@H]1c1ncc(-c2ccc(-c3ccc(-c4cnc([C@@H]5CCCN5C(=O)c5cccc6cnccc56)[nH]4)cc3)cc2)[nH]1 [Compound S-203] | <10
CC(C)(C)[C@H](NC(=O)CC1CC(F)(F)C1)c1nc(-c2ccc(-c3ccc(-c4c[nH]c([C@@H](NC(=O)CC5CC(F)(F)C5)C(C)(C)C)n4)cc3)cc2)c[nH]1 [Compound N-120] | >100
O=C(NC(c1nc(-c2ccc(-c3ccc(-c4c[nH]c(C(NC(=O)C5CCC(F)(F)CC5)C5(C(F)(F)F)CC5)n4)cc3)cc2)c[nH]1)C1(C(F)(F)F)CC1)C1CCC(F)(F)CC1.O=C(O)C(F)(F)F (single isomer, unassigned) [Compound N-109B] | >100
O=C(c1ccc(-c2ccccc2)cc1)N1CCC[C@H]1c1ncc(-c2ccc(-c3ccc(-c4cnc([C@@H]5CCCN5C(=O)c5ccc(-c6ccccc6)cc5)[nH]4)cc3)cc2)[nH]1 [Compound S-117] | >10
CC(C)(C(=O)N[C@H](c1nc(-c2ccc(-c3ccc(-c4cnc([C@@H](NC(=O)C(C)(C)C5CCOC5)C(C)(C)C)[nH]4)cc3)cc2)c[nH]1)C(C)(C)C)C1CCOC1 (stereo partly drawn) [Compound B-168] | >100
CN(C(=O)OC(C)(C)C)C1(C(=O)N[C@H](c2nc(-c3ccc(-c4ccc(-c5c[nH]c([C@@H](NC(=O)C6(N(C)C(=O)OC(C)(C)C)CCC6)C(C)(C)C)n5)cc4)cc3)c[nH]2)C(C)(C)C)CCC1.O=C(O)C(F)(F)F.O=C(O)C(F)(F)F [Compound L-14] | >100
CC(C)(C)C(NC(=O)C1C(c2ccccc2)C1c1ccccc1)c1nc(-c2ccc(-c3ccc(-c4c[nH]c(C(NC(=O)C5C(c6ccccc6)C5c5ccccc5)C(C)(C)C)n4)cc3)cc2)c[nH]1 (mixture of isomers) [Compound S-271] | >100
CC(C)S(=O)(=O)CC(=O)N[C@H](c1nc(-c2ccc(-c3ccc(-c4cnc([C@@H](NC(=O)CS(=O)(=O)C(C)C)C(C)(C)C)[nH]4)cc3)cc2)c[nH]1)C(C)(C)C [Compound B-182] | >100
COC(C)(COCc1ccccc1)C(=O)N[C@H](c1nc(-c2ccc(-c3ccc(-c4c[nH]c([C@@H](NC(=O)C(C)(COCc5ccccc5)OC)C(C)(C)C)n4)cc3)cc2)c[nH]1)C(C)(C)C.O=C(O)C(F)(F)F.O=C(O)C(F)(F)F (single isomer, unassigned) [Compound W-232] | >100
CC(C)[C@H](NC(=O)N1CCOCC1)c1ncc(-c2ccc(-c3ccc(-c4cnc([C@@H](NC(=O)N5CCOCC5)C(C)C)[nH]4)cc3)cc2)[nH]1 [Compound S-231] | >10
COc1cccc(C(=O)C(=O)N[C@H](c2ncc(-c3ccc(-c4ccc(-c5cnc([C@@H](NC(=O)C(=O)c6cccc(OC)c6F)C(C)C)[nH]5)cc4)cc3)[nH]2)C(C)C)c1F [Compound P-119] | >100
CC1(C(=O)NC(c2nc(-c3ccc(-c4ccc(-c5c[nH]c(C(NC(=O)C6(C)CCC(F)(F)CO6)C(C)(C)C)n5)cc4)cc3)c[nH]2)C(C)(C)C)CCC(F)(F)CO1 (single isomer, unassigned) [Compound Y-67B] | >100
CC(C)(C)OC(=O)N1CCC(C)(C)[C@@H]1C(=O)N[C@H](c1nc(-c2ccc(-c3ccc(-c4c[nH]c([C@@H](NC(=O)[C@@H]5N(C(=O)OC(C)(C)C)CCC5(C)C)C(C)(C)C)n4)cc3)cc2)c[nH]1)C(C)(C)C [Compound W-211] | >100
CC(C)(C)C(=O)N[C@H](c1nc(-c2ccc(-c3cnc(-c4c[nH]c([C@@H](NC(=O)C(C)(C)C)C(C)(C)C)n4)cn3)cc2)c[nH]1)C(C)(C)C.O=C(O)C(F)(F)F [Compound N-105] | >100
CCNC(=O)C(=O)N[C@H](c1nc(-c2ccc(-c3ccc(-c4c[nH]c([C@@H](NC(=O)C(=O)OC(C)(C)C)C(C)(C)C)n4)cc3)cc2)c[nH]1)C(C)(C)C [Compound W-43B] | >100
CC(C)(C)[C@H](NC(=O)C1(C(F)(F)F)CCC1)c1nc(-c2ccc(-c3ccc(-c4c[nH]c([C@@H](NC(=O)C5(C(F)(F)F)CCC5)C(C)(C)C)n4)cc3)cc2)c[nH]1 [Compound L-129] | >100
CC1(C(=O)NC(c2nc(-c3ccc(-c4ccc(-c5c[nH]c(C(NC(=O)C6(C)CCCCCO6)C(C)(C)C)n5)cc4)cc3)c[nH]2)C(C)(C)C)CCCCCO1 (stereo not drawn) [Compound Y-91] | >100
CC(O)C1(C(=O)N[C@H](c2nc(-c3ccc(-c4ccc(-c5c[nH]c([C@@H](NC(=O)C6(C(C)O)CCCCC6)C(C)(C)C)n5)cc4)cc3)c[nH]2)C(C)(C)C)CCCCC1 (single isomer, unassigned) [Compound N-152C] | >100

Compound | Fold-Synergistic 1a (Q30E) [fold]
CC(C)[C@H](NC(=O)C1(CF)CC1)c1ncc(-c2ccc(-c3ccc(-c4cnc([C@@H](NC(=O)C5(CF)CC5)C(C)C)[nH]4)cc3)cc2)[nH]1 [Compound P-73] | >100
CC(C)(C)C(=O)N[C@H](c1nc(-c2ccc(-c3ccc(-c4c[nH]c([C@@H](NC(=O)C(C)(C)C)C(C)(C)C)n4)c(F)c3)cc2)c[nH]1)C(C)(C)C.O=C(O)C(F)(F)F [Compound N-93] | >100
COC1(C(=O)N[C@H](c2nc(-c3ccc(-c4ccc(-c5c[nH]c([C@@H](NC(=O)C6(OC)CCC(F)(F)CC6)C(C)(C)C)n5)cc4)cc3)c[nH]2)C(C)(C)C)CCC(F)(F)CC1 [Compound P-34] | >100
CC1([C@H](NC(=O)C2CCC(F)(F)CC2)c2ncc(-c3ccc(-c4ccc(-c5cnc([C@@H](NC(=O)C6CCC(F)(F)CC6)C6(C)CCC6)[nH]5)cc4)cc3)[nH]2)CCC1 [Compound Y-38] | >100
CC(C)[C@H](NC(=O)C(C)(C)F)c1ncc(-c2ccc(-c3ccc(-c4cnc([C@@H](NC(=O)C(C)(C)F)C(C)(C)C)[nH]4)cc3)cc2)[nH]1 [Compound Y-48] | >100
CC(C)[C@H](NC(=O)CCCc1ccccc1)c1ncc(-c2ccc(-c3ccc(-c4cnc([C@@H](NC(=O)CCCc5ccccc5)C(C)C)[nH]4)cc3)cc2)[nH]1 [Compound S-57] | >100
CC(C)[C@H](NC(=O)C(C)(C)F)c1ncc(-c2ccc(-c3ccc(-c4cnc([C@@H](NC(=O)C(C)(C)F)C(C)C)[nH]4)cc3)cc2)[nH]1 [Compound P-99] | >100
COC(CO)(CC(C)C)C(=O)N[C@H](c1nc(-c2ccc(-c3ccc(-c4c[nH]c([C@@H](NC(=O)C(CO)(CC(C)C)OC)C(C)(C)C)n4)cc3)cc2)c[nH]1)C(C)(C)C (single isomer, unassigned) [Compound N-160C] | >100
CC(C)(C)[C@H](NC(=O)C(C)(C)C(F)(F)F)c1nc(-c2ccc(-c3ccc(-c4c[nH]c([C@@H](NC(=O)C(C)(C)C(F)(F)F)C(C)(C)C)n4)cc3)cc2)c[nH]1 [Compound P-31] | >100
CC(C)(OCCF)C(=O)N[C@H](c1nc(-c2ccc(-c3ccc(-c4c[nH]c([C@@H](NC(=O)C(C)(C)OCCF)C(C)(C)C)n4)cc3)cc2)c[nH]1)C(C)(C)C [Compound Y-3] | >100
CC(CO)(OCCF)C(=O)N[C@H](c1nc(-c2ccc(-c3ccc(-c4c[nH]c([C@@H](NC(=O)C(C)(CO)OCCF)C(C)(C)C)n4)cc3)cc2)c[nH]1)C(C)(C)C (single isomer, unassigned) [Compound W-271] | >100
COC(c1ccccc1)C1(C(=O)N[C@H](c2nc(-c3ccc(-c4ccc(-c5c[nH]c([C@@H](NC(=O)C6(C(OC)c7ccccc7)CC6)C(C)(C)C)n5)cc4)cc3)c[nH]2)C(C)(C)C)CC1 (single isomer, unassigned) [Compound N-137A] | >100
CC(C)(C)[C@H](NC(=O)C1CCC(F)(F)CC1)c1ncc(CCc2ccc3cc(-c4cnc([C@@H](NC(=O)C5CCC(F)(F)CC5)C(C)(C)C)[nH]4)ccc3c2)[nH]1 [Compound B6] | >100
CC(C)(C(=O)N[C@H](c1ncc(-c2ccc(-c3ccc(-c4cnc([C@@H](NC(=O)C(C)(C)C5=CCCCC5)C(C)(C)C)[nH]4)cc3)cc2)[nH]1)C(C)(C)C)C1=CCCCC1 [Compound B86] | >100
CC1(C(=O)N[C@H](c2nc(-c3ccc(-c4ccc(-c5c[nH]c([C@@H](NC(=O)C6(C)CCCCC6O)C(C)(C)C)n5)cc4)cc3)c[nH]2)C(C)(C)C)CCCCC1O (single isomer, unassigned) [Compound Y-106] | >100
O=C(Oc1ccc2ccccc2c1)N1CCC[C@H]1c1ncc(-c2ccc(-c3ccc(-c4cnc([C@@H]5CCCN5C(=O)Oc5ccc6ccccc6c5)[nH]4)cc3)cc2)[nH]1 [Compound S-226] | >100
CC(C)[C@H](NC(=O)c1cccc(Cl)c1)c1ncc(-c2ccc(-c3ccc(-c4cnc([C@@H](NC(=O)c5cccc(Cl)c5)C(C)C)[nH]4)cc3)cc2)[nH]1 [Compound S-74] | >100
CC1(C(=O)N[C@H](c2nc(-c3ccc(-c4ccc(-c5c[nH]c([C@@H](NC(=O)C6(C)CCCCC6O)C(C)(C)C)n5)cc4)cc3)c[nH]2)C(C)(C)C)CCCCC1O (single isomer, unassigned) [Compound Y-93] | >100
CC(C)(F)C(=O)N[C@H](c1nc(-c2ccc(-c3ccc(-c4c[nH]c([C@@H](NC(=O)C(C)(C)F)C(C)(C)C)n4)cc3)cc2)c[nH]1)C(C)(C)C [Compound N-115] | >100
